{"source": "paper PMC10102062", "about": "“Effects of DPTQ, a novel positive allosteric modulator of the dopamine D1 receptor, on spontaneous eye blink rate and spatial working memory in the nonhuman primate” (Psychopharmacology, 2023)", "key": {"rhesus monkeys [1]": {"test_system": "rhesus monkeys", "set-up": "method as in Bruns et al., [2018]", "settings": "smaller response than SKF82958; ref Bruns et al., [2018]; cited from earlier work"}, "D2 receptor": {"target": "D2 receptor (Homo sapiens, UniProt P14416)", "sequence (P14416 whole entry)": "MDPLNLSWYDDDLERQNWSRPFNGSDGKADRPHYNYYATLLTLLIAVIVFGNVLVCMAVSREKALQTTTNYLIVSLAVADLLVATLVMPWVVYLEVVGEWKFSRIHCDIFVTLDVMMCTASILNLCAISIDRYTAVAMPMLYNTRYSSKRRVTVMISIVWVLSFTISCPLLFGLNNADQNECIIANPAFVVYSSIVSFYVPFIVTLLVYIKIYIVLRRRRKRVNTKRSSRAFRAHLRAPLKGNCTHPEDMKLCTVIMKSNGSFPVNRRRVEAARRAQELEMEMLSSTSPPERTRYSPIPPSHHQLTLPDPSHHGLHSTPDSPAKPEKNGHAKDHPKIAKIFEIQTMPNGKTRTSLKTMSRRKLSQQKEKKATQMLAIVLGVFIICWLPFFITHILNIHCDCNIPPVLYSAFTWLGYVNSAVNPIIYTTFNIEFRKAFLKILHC", "set-up": "method as in previously published data", "settings": "at 10 µM, functional and binding studies; ref previously published data; cited from earlier work"}, "[2]": {"test_system": "pCREB and the AMPA receptor pGluR1", "set-up": "method as in Bruns et al. [2018]", "settings": "hD1 mouse; similar to SKF82958; ref Bruns et al. [2018]; cited from earlier work"}, "rhesus monkeys [3]": {"test_system": "rhesus monkeys", "assay": "Spontaneous eye blink rate, cumulative dosing", "type": "in vivo, rhesus monkey", "excerpt": "Eleven 5–6-year-old, male rhesus monkeys (Chengdu Ping, An Animal Breeding and Research Base, Sichuan Province, China) with an average weight of 4.83 kg were included in the study. The animals were randomly divided into three groups, DPTQ higher cumulative dose group (n = 4); DPTQ lower cumulative dose group (n = 3); and vehicle (20% Captisol (CyDex Pharmaceuticals, Inc., KS) in NaPO4 buffer) group (n = 4). The D1 agonist SKF82958 was included as a positive control; the results for this compound (not shown here) were recently published together with data for a different D1PAM (DETQ, see Bruns et al. [2018]). The D1 selective antagonist SCH39166 hydrobromide (Cat No.: 2299, Batch No.: 3A/129719) was purchased from Tocris, MN, and was prepared in Millipore pure water with the injection volume 0.2 ml/kg. The D1 antagonist was dosed 15 min before vehicle or DPTQ (n = 4 animals per group).\nSpontaneous eye blinking rate was measured during observational experiments conducted in a specially constructed monkey chair (Mason et al. [2019]). A U-shaped neck plate that helped to fixate the orientation of the head was used to facilitate observation of eye blink rate response. A compact video camera (Panasonic/wv-cp480/CH) on a tripod was positioned in front of the seated monkey. Two camera images were combined by video collector (Color QUAD system) and transferred to the EthoVision software (Noldus, Leesburg, VA) on the computer for on-line viewing and recording.\nTwo weeks before testing, monkeys were trained daily to sit in the monkey chair for two 2-h periods with food reward. During post-training test sessions conducted between 9:00 am and 4:30 pm every day, each monkey was studied for nine consecutive 15-min components. Each 15-min block consisted of a 10-min habituation period followed by a 5-min period during which eye blinking was counted. […] Observers blind to the treatment conditions later scored each 5-min videotaped session. An eye blink was defined as a visible, rapid opening and closing of the eyelid. Two observers independently confirmed the measurement with reliability > 90%.\nThe effects of different D1 ligands on spontaneous eye blink rate were studied by a cumulative dosing procedure (Jutikiewicz and Bergman 2004). Active compound or vehicle (Captisol 20% w/v NaPO4 buffer) was administered after obtaining two baseline eye blink recordings. The ligand was given in random order to different monkeys of each group as described above. To study dose response and time course, incremental doses of DPTQ were administrated at the end of 15-min components of each test session.\nDPTQ (free base, see Hao et al. [2019]) was supplied by Eli Lilly Company. Captisol (Lot No.: NC-04A-05034) was prepared as follows: Captisol 20% w/v NaPO4 buffer 25 mM, pH 8. The injection volume for DPTQ was 0.5 ml/kg IM. DPTQ at 0.1 mg/kg, 0.5 mg/kg, and 1 mg/kg were dosed as clear solution, while the 5 mg/kg and 10 mg/kg doses were formulated as fine suspensions. The above vehicle solution was stored at 4℃ in a refrigerator and restored to room temperature before use. When preparing DPTQ fresh daily, a portion of the vehicle (20% Captisol) was added to the compound and stirred to wet, followed by addition of the remainder of the vehicle and mixing until the solution became homogeneous. The suspension was then sonicated on an ice bath for 40 min to reduce particle size. Animals were dosed while in the chair.\nResults for each monkey were expressed as the rate of eye blinking (blinks per minute) averaged over each 5-min testing epoch. The effects of vehicle and D1 PAM on eye blinking were averaged for each group of monkeys and expressed as mean ± SE. The effects of DPTQ and vehicle were analyzed with two-way ANOVA (D1 PAM and time) followed by Bonferroni post hoc test (GraphPad Prism, San Diego CA)."}, "adult human volunteers": {"test_system": "adult human volunteers", "set-up": "method as in Wilbraham et al. [2021]", "settings": "clinical studies; ref Wilbraham et al. [2021]; cited from earlier work"}}}
{"molecule": "C[C@H]1c2cccc(C(C)(C)O)c2C[C@H](CO)N1C(=O)Cc1c(Cl)cccc1Cl", "note": "[DETQ]", "values": [{"measurement": "Spontaneous eye blink rate", "setting": "rhesus monkeys [1]", "result": "enhanced spontaneous eye blink rate"}, {"measurement": "Activity at the D2 receptor", "setting": "D2 receptor", "result": "no activity"}, {"measurement": "Brain levels of pCREB and pGluR1", "setting": "[2]", "result": "enhances"}]}
{"molecule": "CN1CCc2cc(Cl)c(O)cc2[C@H]2c3ccccc3CC[C@@H]21", "note": "[SCH39166, reference compound]", "values": [{"measurement": "Duration of eye blink reduction/sedation", "setting": "rhesus monkeys [3]; 0.03 mg/kg IM alone", "result": "about 15 min"}, {"measurement": "Spontaneous eye blink rate, antagonist alone", "setting": "rhesus monkeys [3]; 0.03 mg/kg IM alone", "result": "brief reduction in eye blink rate"}, {"measurement": "Visual observation of sedation", "setting": "rhesus monkeys [3]; 0.03 mg/kg IM alone", "result": "slightly sedated"}, {"measurement": "Effect on DPTQ-induced increase in spontaneous eye blink rate", "setting": "rhesus monkeys [3]; SCH39166 pretreatment, high cumulative doses of DPTQ, n = 4/group", "result": "blocks"}]}
{"molecule": "C[C@H]1c2cccc(CCC(C)(C)O)c2C[C@H](CO)N1C(=O)Cc1c(Cl)cccc1Cl", "note": "[mevidalen, 2-(2,6-dichlorophenyl)-1-((1S,3R)-5-(3-hydroxy-3-methylbutyl)-3-(hydroxymethyl)-1-methyl-3,4-dihydroisoquinolin-2(1H)-yl)ethan-1-one]", "values": [{"measurement": "Activity at the D2 receptor", "setting": "D2 receptor", "result": "no activity"}, {"measurement": "Oral movement with tongue protrusion", "setting": "adult human volunteers", "result": "not reported"}]}
